Laboratory results taken from patent US11339130B1 (Blade Therapeutics, Inc., priority 2016, dated 2022).

How the values were obtained:
[1] = target: T1, Human Calpain 1/NS1 (Homo sapiens, UniProt P07384); assay: Calpain inhibition continuous fluorescence (FRET) assay, Human Calpain 1/NS1; format: biochemical; settings: read-out: Human Calpain 1/NS1 IC50
T1 sequence (P07384 1-714): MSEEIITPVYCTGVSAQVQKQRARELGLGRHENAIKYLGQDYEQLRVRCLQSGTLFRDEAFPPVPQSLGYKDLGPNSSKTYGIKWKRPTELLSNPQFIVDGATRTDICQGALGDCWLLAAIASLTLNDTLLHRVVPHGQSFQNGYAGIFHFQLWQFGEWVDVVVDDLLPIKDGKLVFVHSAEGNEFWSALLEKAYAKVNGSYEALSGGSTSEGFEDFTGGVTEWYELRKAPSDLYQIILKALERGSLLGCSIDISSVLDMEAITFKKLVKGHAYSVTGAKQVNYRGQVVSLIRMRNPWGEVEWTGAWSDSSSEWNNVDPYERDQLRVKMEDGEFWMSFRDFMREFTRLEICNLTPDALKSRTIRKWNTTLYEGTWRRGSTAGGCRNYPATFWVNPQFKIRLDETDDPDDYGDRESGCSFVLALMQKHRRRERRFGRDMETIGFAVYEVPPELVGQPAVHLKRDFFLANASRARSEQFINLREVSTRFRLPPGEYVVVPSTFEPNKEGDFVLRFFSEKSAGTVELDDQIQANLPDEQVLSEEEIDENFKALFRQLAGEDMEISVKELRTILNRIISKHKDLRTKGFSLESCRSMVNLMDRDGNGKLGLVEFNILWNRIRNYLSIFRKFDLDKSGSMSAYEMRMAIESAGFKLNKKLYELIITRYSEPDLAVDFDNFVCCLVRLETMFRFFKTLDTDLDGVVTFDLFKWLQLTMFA
T1 sequence (P04632 1-268 partner): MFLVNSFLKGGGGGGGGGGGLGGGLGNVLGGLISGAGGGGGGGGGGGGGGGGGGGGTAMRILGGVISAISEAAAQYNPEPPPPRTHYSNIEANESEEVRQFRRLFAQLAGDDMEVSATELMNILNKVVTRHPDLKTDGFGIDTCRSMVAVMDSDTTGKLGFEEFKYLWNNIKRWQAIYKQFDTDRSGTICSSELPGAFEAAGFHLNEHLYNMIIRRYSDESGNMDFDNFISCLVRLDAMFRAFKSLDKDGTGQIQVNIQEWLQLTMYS
Method in brief: (§1)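 Fluorescence increase from the cleaved 5-FAM/QXL 520 substrate, read at 490/520 nm, gave activity. Calcium was supplied with the substrate to activate the enzyme in situ after a 25C enzyme-inhibitor preincubation, and IC50s were fit from initial slopes.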

[2] = target: T2, Human Calpain 2/NS1 (Homo sapiens, UniProt P17655); assay: Calpain inhibition continuous fluorescence (FRET) assay, Human Calpain 2/NS1; format: biochemical; settings: read-out: Human Calpain 2/NS1 IC50
T2 sequence (P17655 1-700): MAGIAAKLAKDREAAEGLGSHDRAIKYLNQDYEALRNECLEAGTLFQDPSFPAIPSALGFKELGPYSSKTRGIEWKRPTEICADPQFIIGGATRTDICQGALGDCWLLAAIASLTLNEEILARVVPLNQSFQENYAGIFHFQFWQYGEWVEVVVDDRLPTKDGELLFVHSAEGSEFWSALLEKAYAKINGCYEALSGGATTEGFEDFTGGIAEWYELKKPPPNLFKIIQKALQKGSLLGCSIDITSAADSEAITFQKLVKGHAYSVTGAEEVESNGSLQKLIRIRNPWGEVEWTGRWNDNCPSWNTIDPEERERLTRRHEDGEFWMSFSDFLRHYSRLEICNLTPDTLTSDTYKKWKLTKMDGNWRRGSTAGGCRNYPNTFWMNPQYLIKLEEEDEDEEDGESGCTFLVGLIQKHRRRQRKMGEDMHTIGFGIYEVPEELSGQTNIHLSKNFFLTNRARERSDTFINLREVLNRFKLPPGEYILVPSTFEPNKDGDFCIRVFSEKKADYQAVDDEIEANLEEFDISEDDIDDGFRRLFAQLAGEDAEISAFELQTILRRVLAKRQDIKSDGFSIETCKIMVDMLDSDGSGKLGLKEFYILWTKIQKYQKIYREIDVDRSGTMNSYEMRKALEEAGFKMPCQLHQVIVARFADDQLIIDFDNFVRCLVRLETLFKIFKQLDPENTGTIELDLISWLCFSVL
T2 sequence (P04632 1-268 partner): T1 sequence (P04632 1-268 partner)
Method in brief: as §1

[3] = target: T3, Human Calpain 9/NS1 (Homo sapiens, UniProt O14815); assay: Calpain inhibition continuous fluorescence (FRET) assay, Human Calpain 9/NS1; format: biochemical; settings: read-out: Human Calpain 9/NS1 IC50
T3 sequence (O14815 1-690): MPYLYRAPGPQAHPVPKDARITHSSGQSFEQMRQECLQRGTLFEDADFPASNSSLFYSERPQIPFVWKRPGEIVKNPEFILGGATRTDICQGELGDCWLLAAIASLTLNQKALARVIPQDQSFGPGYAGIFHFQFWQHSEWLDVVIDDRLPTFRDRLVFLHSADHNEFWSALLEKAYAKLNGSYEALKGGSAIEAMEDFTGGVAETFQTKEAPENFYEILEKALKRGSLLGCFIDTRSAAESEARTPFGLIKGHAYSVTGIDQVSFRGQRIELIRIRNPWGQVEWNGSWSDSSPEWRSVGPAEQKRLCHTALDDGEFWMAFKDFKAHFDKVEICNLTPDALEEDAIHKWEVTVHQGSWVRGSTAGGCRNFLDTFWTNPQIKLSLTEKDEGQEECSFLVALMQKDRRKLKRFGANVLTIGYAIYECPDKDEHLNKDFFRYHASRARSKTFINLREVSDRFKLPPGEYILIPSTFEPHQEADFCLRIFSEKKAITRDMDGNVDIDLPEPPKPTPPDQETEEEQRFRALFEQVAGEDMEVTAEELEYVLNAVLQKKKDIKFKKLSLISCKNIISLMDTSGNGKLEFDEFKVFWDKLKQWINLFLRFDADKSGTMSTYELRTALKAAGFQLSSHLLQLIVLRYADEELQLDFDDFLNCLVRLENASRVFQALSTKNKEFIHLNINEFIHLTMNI
T3 sequence (P04632 1-268 partner): T1 sequence (P04632 1-268 partner)
Method in brief: as §1

[4] = system: Calpain activity in SH-SY5Y cells (SBDP-150); assay: SH-SY5Y Spectrin western blot assay (SBDP-150 breakdown product, A23187-induced); format: cell-based; settings: Homo sapiens; SH-SY5Y cells, A23187-induced SBDP-150, western blot; read-out: SH-SY5Y Spectrin IC50
[5] = system: Calpain activity in SH-SY5Y cells; assay: SH-SY5Y + AMC fluorescence assay (Suc-LLVY-AMC substrate); format: cell-based; settings: read-out: SH-SY5Y + AMC IC50

IC50 [1]	IC50 [2]	IC50 [3]	IC50 [4]	IC50 [5]	SMILES
< 3 µM	< 3 µM	< 3 µM	> 25 µM	< 10 µM	NC(=O)C(=O)C(Cc1ccccc1)NC(=O)c1cn(C2CCC2)nc1-c1ccccc1 (stereo not drawn) [Compound 526, N-(4-amino-3,4-dioxo-1-phenylbutan-2-yl)-1-cyclobutyl-3-phenyl-1H-pyrazole-4-carboxamide]
< 3 µM	< 3 µM	< 3 µM	> 25 µM	< 10 µM	NC(=O)C(=O)C(Cc1ccccc1)NC(=O)c1cn(-c2ccccc2F)nc1-c1ccccc1 (stereo not drawn) [Compound 527, N-(4-amino-3,4-dioxo-1-phenylbutan-2-yl)-1-(2-fluorophenyl)-3-phenyl-1H-pyrazole-4-carb oxamide]
< 3 µM	< 3 µM	< 3 µM	> 25 µM	> 25 µM	Cn1cc(C(=O)NC(Cc2ccccc2)C(=O)C(N)=O)c(-n2ncc3ccccc32)n1 (stereo not drawn) [Compound 530, N-(4-amino-3,4-dioxo-1-phenylbutan-2-yl)-3-(1H-indazol-1-yl)-1-methyl-1H-pyrazole-4-carboxamide]
< 3 µM	< 3 µM	< 3 µM	> 25 µM	> 25 µM	Cn1cc(C(=O)NC(Cc2ccccc2)C(=O)C(N)=O)c(-c2ccc3c(c2)OC(F)(F)O3)n1 (stereo not drawn) [Compound 548, N-(4-amino-3,4-dioxo-1-phenylbutan-2-yl)-3-(2,2-difluorobenzo[d][1,3]dioxol-5-yl)-1-methyl-1H-pyrazole-4-carboxamide]
< 3 µM	< 3 µM	< 3 µM	> 25 µM	10 to 25 µM	NC(=O)C(=O)C(Cc1ccccc1)NC(=O)c1cn(C(F)F)nc1-c1ccccn1 (stereo not drawn) [Compound 550, N-(4-amino-3,4-dioxo-1-phenylbutan-2-yl)-1-(difluoromethyl)-3-(pyridin-2-yl)-1H-pyrazole-4-carboxamide]

More lines, now with the values behind:

SMILES	IC50 [1]	IC50 [2]	IC50 [3]	IC50 [4]	IC50 [5]
NC(=O)C(=O)C(Cc1ccccc1)NC(=O)c1cn(C2CCCC2)nc1-c1ccccc1 (stereo not drawn) [Compound 525, N-(4-amino-3,4-dioxo-1-phenylbutan-2-yl)-1-cyclopentyl-3-phenyl-1H-pyrazole-4-carboxamide]	< 3 µM	< 3 µM	< 3 µM	> 25 µM	< 10 µM
NC(=O)C(=O)C(Cc1ccccc1)NC(=O)c1cn(-c2ccc(F)cc2)nc1-c1ccccc1 (stereo not drawn) [Compound 529, N-(4-amino-3,4-dioxo-1-phenylbutan-2-yl)-1-(4-fluorophenyl)-3-phenyl-1H-pyrazole-4-carb oxamide]	< 3 µM	< 3 µM	< 3 µM	> 25 µM	< 10 µM
NC(=O)C(=O)C(Cc1ccccc1)NC(=O)c1cnoc1-c1ccccc1 (stereo not drawn) [Compound 531, N-(4-amino-3,4-dioxo-1-phenylbutan-2-yl)-5-phenylisoxazole-4-carboxamide]	< 3 µM	< 3 µM	< 3 µM	10 to 25 µM	> 25 µM
NC(=O)C(=O)C(Cc1c[nH]c2ccccc12)NC(=O)c1nsnc1-c1ccccc1 (stereo not drawn) [Compound 532, N-(4-amino-1-(1H-indol-3-yl)-3,4-dioxobutan-2-yl)-4-phenyl-1,2,5-thiadiazole-3-carboxamide]	< 3 µM	< 3 µM	< 3 µM	< 10 µM	< 10 µM
NC(=O)C(=O)C(Cc1ccccc1)NC(=O)c1cn(C(F)F)nc1-c1cccc2c1OC(F)(F)O2 (stereo not drawn) [Compound 546, N-(4-amino-3,4-dioxo-1-phenylbutan-2-yl)-3-(2,2-difluorobenzo[d][1,3]dioxol-4-yl)-1-(difluoromethyl)-1H-pyrazole-4-carboxamide]	< 3 µM	< 3 µM	< 3 µM	< 10 µM	< 10 µM
NC(=O)C(=O)C(Cc1ccccc1)NC(=O)c1cn(C(F)F)nc1-c1cccc2ccccc12 (stereo not drawn) [Compound 547, N-(4-amino-3,4-dioxo-1-phenylbutan-2-yl)-1-(difluoromethyl)-3-(naphthalen-1-yl)-1H-pyrazole-4-carboxamide]	< 3 µM	< 3 µM	< 3 µM	< 10 µM	< 10 µM
Cc1ccc(F)c(-c2oncc2C(=O)NC(Cc2ccccc2)C(=O)C(N)=O)c1 (stereo not drawn) [Compound 549, N-(4-amino-3,4-dioxo-1-phenylbutan-2-yl)-5-(2-fluoro-5-methylphenyl)isoxazole-4-carboxamide]	< 3 µM	< 3 µM	< 3 µM	> 25 µM	< 10 µM
NC(=O)C(=O)C(Cc1ccccc1)NC(=O)c1cn(C(F)F)nc1-c1ccc2ccccc2c1 (stereo not drawn) [Compound 551, N-(4-amino-3,4-dioxo-1-phenylbutan-2-yl)-1-(difluoromethyl)-3-(naphthalen-2-yl)-1H-pyrazole-4-carboxamide]	< 3 µM	< 3 µM	< 3 µM	10 to 25 µM	> 25 µM
NC(=O)C(=O)C(Cc1ccccc1)NC(=O)c1cn(C(F)F)nc1-c1cc(F)ccc1F (stereo not drawn) [Compound 552, N-(4-amino-3,4-dioxo-1-phenylbutan-2-yl)-1-(difluoromethyl)-3-(2,5-difluorophenyl)-1H-pyrazole-4-carboxamide]	< 3 µM	< 3 µM	< 3 µM	< 10 µM	< 10 µM
Cn1cc(C(=O)N[C@H](C(=O)C(N)=O)C2Cc3ccccc3C2)c(-c2ccccc2F)n1 [Compound 553, (S)—N-(3-amino-1-(2,3-dihydro-1H-inden-2-yl)-2,3-dioxopropyl)-3-(2-fluorophenyl)-1-methyl-1H-pyrazole-4-c arboxamide]	< 3 µM	< 3 µM	< 3 µM	> 25 µM	< 10 µM
